Measured values reported in article PMC8453745, “Human Mass Balance and Metabolite Profiling of [^14C]‐Pamiparib, a Poly (ADP‐Ribose) Polymerase Inhibitor, in Patients With Advanced Cancer” (Clinical Pharmacology in Drug Development, 2021).

Columns and labels:
[1] = mass balance: recovery of radioactivity in urine and feces; format: in vivo, human
Description: Part 1 of the study included a screening phase of up to 28 days prior to drug administration to assess eligibility. Patients were admitted to the clinical research unit (CRU) at Royal Liverpool University Hospital (Liverpool, UK)/Clatterbridge Cancer Centre NHS Foundation Trust (Bebington, Wirral, UK) on day −1 and received a single dose of 60‐mg/100 μCi [^14C]‐pamiparib orally the morning of day 1. Patients remained in the CRU until completion of assessments on day 7, when discharge criteria of ≈90% of the radioactive dose being recovered or <1% of the radioactive dose being recovered in urine and feces for 2 consecutive 24‐hour collection intervals were met. If discharge criteria were not met by day 7, patients collected 24‐hour excreta samples up to day 14 on an outpatient basis. Part 2 of the study, evaluating the safety/tolerability and antitumor activity of 60 mg twice‐daily pamiparib in patients with advanced and/or metastatic solid tumors, is ongoing and is not included in this report.
Total radioactivity concentrations of [^14C]‐pamiparib in whole blood, plasma, urine, and feces were determined by liquid scintillation counting (LSC). Radioactivity in each sample was measured for 5 minutes using a Packard Tri‐Carb liquid scintillation counter model 2100TR, 2900TR, or 3100TR (Canberra Packard, Pangbourne, Berks, Australia) with the facilities for computing quench‐corrected disintegrations per minute. Metabolite identification in plasma, urine, and feces was conducted by LC‐MS. Quantitation of the metabolites present in plasma, urine, and feces was based on the profiles of radioactivity. The limit of quantitation for radioactivity in plasma, urine, and feces was set at 1% of each chromatographic analysis (run) and 10 counts per minute (cpm) peak height; therefore, radioactive peaks that were <1% of the total run or <10 cpm peak height were reported as not detected. […]
Each aliquot of urine (about 1 mL, weighed) was added directly to liquid scintillant prior to LSC. […] The radioactivity in each pooled sample was determined by LSC. […]

CYP2D6 = target: T1, CYP2D6 (Homo sapiens, UniProt P10635); assay: CYP450 phenotyping in HLMs with CYP2D6 inhibitor quinidine; format: in vitro ADME; details: HLM incubation
T1 construct: tissue Corning (Woburn, New York); host or cells: pooled human liver microsomes
Protocol: (§1) Metabolic stability in human liver microsomes (HLMs) and cytochrome P450 (CYP450) phenotyping assays were conducted in 3D BioOptima (Suzhou, China) using validated methodology, [13] to determine the intrinsic clearance and enzymes responsible for metabolism of pamiparib. HLMs for microsome stability was from BD Biosciences (Woburn, New York). For phenotyping, HLMs and recombinant P450 (rCYP) were from Corning (Woburn, New York). Pamiparib (1 μM) was incubated with pooled HLM (0.5 mg/mL), NADPH (1 mM), and MgCl2 (3 mM) terminated at 0, 5, 15, 30, 60, and 90 minutes. The intrinsic clearance was calculated as 0.693/(t1/2 × HLM concentration), where t1/2 is the half‐life of pamiparib determined in HLMs. For phenotyping in HLMs, pamiparib (1 μM) was incubated in the absence or presence of isoform‐selective inhibitors: 0.2 μM α‐naphthoflavone for CYP1A2, 2 μM clopidogrel for CYP2B6, 16 μM montelukast for CYP2C8, 10 μM sulfaphenazole for CYP2C9, 30 μM nootkatone for CYP2C19, 2 μM quinidine for CYP2D6, and 1 μM ketoconazole for CYP3A. The following isoform‐selective probe substrates served as positive controls: 40 μM phenacetin for CYP1A2, 100 μM bupropion for CYP2B6, 2 μM amodiaquine for CYP2C8, 5 μM diclofenac for CYP2C9, 40 μM S‐mephenytoin for CYP2C19, 5 μM dextromethorphan for CYP2D6, and 2 μM midazolam for CYP3A4. […] Pamiparib, M1, and M2 were analyzed by LC‐MS/MS.

[2] = system: CYP1A2, CYP2B6, CYP2C9, CYP2C19; assay: CYP450 phenotyping in HLMs with all other CYP inhibitors; format: in vitro ADME, human; details: HLM incubation
Protocol: as §1

T1 sequence (P10635 whole entry): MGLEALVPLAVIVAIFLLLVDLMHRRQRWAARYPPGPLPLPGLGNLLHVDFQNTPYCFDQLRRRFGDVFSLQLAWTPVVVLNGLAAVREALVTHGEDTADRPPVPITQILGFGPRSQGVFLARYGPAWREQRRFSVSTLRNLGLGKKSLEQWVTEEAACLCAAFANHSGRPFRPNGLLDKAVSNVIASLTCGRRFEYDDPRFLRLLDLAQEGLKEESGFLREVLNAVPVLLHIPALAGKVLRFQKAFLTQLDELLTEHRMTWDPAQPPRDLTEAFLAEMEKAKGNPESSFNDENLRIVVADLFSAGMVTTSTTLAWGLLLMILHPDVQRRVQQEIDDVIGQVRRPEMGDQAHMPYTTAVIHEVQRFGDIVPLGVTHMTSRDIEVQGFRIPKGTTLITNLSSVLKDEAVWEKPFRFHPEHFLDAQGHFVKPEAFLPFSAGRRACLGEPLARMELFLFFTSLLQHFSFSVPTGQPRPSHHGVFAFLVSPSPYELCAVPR

Q: Which “administered radioactivity excreted in the feces” value ([1]; 192‐hour collection period) does the source give for `C[C@]12CCCN1CC1=NNC(=O)c3cc(F)cc4[nH]c2c1c34` [Pamiparib] here?
A: 26.9% ± 6.8%

Q: What about the “overall mean total recovery of radioactivity in urine and feces” value ([1]; 192‐hour collection period, mean ± SD, n = 4) of the same compound?
A: 84.7% ± 3.5%

Q: What about the “mass balance achieved for all 4 subjects” value ([1]; individual subjects) of the same compound?
A: higher than 80%

Q: And the “effect of CYP2D6 inhibitor quinidine on pamiparib metabolism” value (CYP2D6)?
A: minimal effect

Q: What about the “effect of all other CYP inhibitors on pamiparib metabolism” value [2] of the same compound?
A: nearly no effect
